Data on four compounds can be found in patent US20070049592A1, “Bis-aryl urea compounds and methods of use” (priority 2005, published 2007).

Each structure is given as a SMILES string. pIC50: −log10 of the molar value. Where only a bound is given, the exact number is not on record here.

For experiment [1], the system named is Human Umbilical Vein Endothelial cells. In words: HUVEC proliferation assay (VEGF). The format is cell-based. The note with it: VEGF-stimulated HUVEC proliferation. The protocol:
Human Umbilical Vein Endothelial cells are purchased from Clonetics, Inc., as cryopreserved cells harvested from a pool of donors. These cells, at passage 1, are thawed and expanded in EBM-2 complete medium, until passage 2 or 3. The cells are trypsinized, washed in DMEM+10% FBS+antibiotics, and spun at 1000 rpm for 10 min. Prior to centrifugation of the cells, a small amount is collected for a cell count. After centrifugation, the medium is discarded, and the cells are resuspended in the appropriate volume of DMEM+10% FBS+antibiotics to achieve a concentration of 3×10^5 cells/mL. Another cell count is performed to confirm the cell concentration. The cells are diluted to 3×10^4 cells/mL in DMEM+10% FBS+antibiotics, and 100 μL of cells are added to a 96-well plate. The cells are incubated at 37° C. for 22 h.
Prior to the completion of the incubation period, compound dilutions are prepared. Five-point, five-fold serial dilutions are prepared in DMSO, at concentrations 400-fold greater than the final concentrations desired. 2.5 μL of each compound dilution are diluted further in a total of 1 mL DMEM+10% FBS+antibiotics (400× dilution). Medium containing 0.25% DMSO is also prepared for the 0 μM compound sample. At the 22 h timepoint, the medium is removed from the cells, and 100 μL of each compound dilution is added. The cells are incubated at 37° C. for 2-3 h.
During the compound pre-incubation period, the growth factors are diluted to the appropriate concentrations. Solutions of DMEM+10% FBS+antibiotics, containing either VEGF or bFGF at the following concentrations: 50, 10, 2, 0.4, 0.08, and 0 ng/mL are prepared. For the compound-treated cells, solutions of VEGF at 550 ng/mL or bFGF at 220 ng/mL for 50 ng/mL or 20 ng/mL final concentrations, respectively, are prepared since 10 μL of each will be added to the cells (110 μL final volume). At the appropriate time after adding the compounds, the growth factors are added. VEGF is added to one set of plates, while bFGF is added to another set of plates. For the growth factor control curves, the media on wells B4-G6 of plates 1 and 2 are replaced with media containing VEGF or bFGF at the varying concentrations (50-0 ng/mL). The cells are incubated at 37° C. for an additional 72 h.
At the completion of the 72 h incubation period, the medium is removed, and the cells are washed twice with PBS. After the second wash with PBS, the plates are tapped gently to remove excess PBS, and the cells are placed at −70° C. for at least 30 min. The cells are thawed and analyzed using the CyQuant fluorescent dye (Molecular Probes C-7026), following the manufacturer's recommendations. The plates are read on a Victor/Wallac 1420 workstation at 485 nm/530 nm (excitation/emission). Raw data is collected and analyzed using a 4-parameter fit equation in XLFit. IC50 values are then determined.

Experiment [2] deals with production of TNF by monocytes activated with bacterial lipopolysaccharide (LPS). In words: Lipopolysaccharide-activated monocyte TNF production assay. The format is cell-based. The following applies: Homo sapiens, as a determination of p38 activity, read-out: IC50 values in the monocyte assay (LPS induced TNF release). As for the experimental part:
Test compounds were evaluated in vitro for the ability to inhibit the production of TNF by monocytes activated with bacterial lipopolysaccharide (LPS). Fresh residual source leukocytes (a byproduct of plateletpheresis) were obtained from a local blood bank, and peripheral blood mononuclear cells (PBMCs) were isolated by density gradient centrifugation on Ficol-Paque Plus (Pharmacia). PBMCs were suspended at 2×10^6/ml in DMEM supplemented to contain 2% FCS, 10 mM, 0.3 mg/ml […], 100 U/ml penicillin G and […] streptomycin sulfate (complete media). Cells were plated into Falcon flat bottom, 96 well culture plates (200 μl/well) and cultured overnight at 37° C. and 6% CO2. Non-adherent cells were removed by washing with 200 μl/well of fresh medium. Wells containing adherent cells (˜70% monocytes) were replenished with 100 μl of fresh medium.
Test compounds were dissolved in […]. Compound stock solutions were prepared to an initial concentration of […]. Stocks were diluted initially to 20-200 μM in complete media. Nine two-fold serial dilutions of each compound were then prepared in complete medium.
One hundred microliters of each test compound dilution were added to microtiter wells containing adherent monocytes and 100 μl complete medium. Monocytes were cultured with test compounds for 60 min at which time 25 μl of complete medium containing 30 ng/ml lipopolysaccharide from E. coli K532 were added to each well. Cells were cultured an additional 4 hrs. Culture supernatants were then removed and TNF presence in the supernatants was quantified using an ELISA.
Flat bottom, 96 well Corning High Binding ELISA plates were coated overnight (4° C.) with 150 μL/well of 3 μg/ml murine anti-human TNF-α MAb (R&D Systems #MAB210). Wells were then blocked for 1 hr at room temperature with 200 μL/well of CaCl2-free ELISA buffer supplemented to contain 20 mg/ml BSA (standard ELISA buffer: […], 150 mM NaCl, 2 mM CaCl2, 0.15 mM thimerosal, pH 7.4). Plates were washed and replenished with 100 μl of test supernatants (diluted 1:3) or standards. Standards consisted of eleven 1.5-fold serial dilutions from a stock of 1 ng/ml recombinant human TNF (R&D Systems). Plates were incubated at room temperature for 1 hr on orbital shaker (300 rpm), washed and replenished with 100 μl/well of 0.5 μg/ml goat anti-human TNF-α (R&D systems #AB-210-NA) biotinylated at a 4:1 ratio. Plates were incubated for 40 min, washed and replenished with 100 μl/well of alkaline phosphatase-conjugated streptavidin (Jackson ImmunoResearch #016-050-084) at 0.02 μg/ml. Plates were incubated 30 min, washed and replenished with 200 μl/well of 1 mg/ml of p-nitrophenyl phosphate. After 30 min, plates were read at 405 nm on a Vmax plate reader.
Standard curve data were fit to a second order polynomial and unknown TNF-α concentrations determined from their OD by solving this equation for concentration. TNF concentrations were then plotted vs. test compound concentration using a second order polynomial. This equation was then used to calculate the concentration of test compounds causing a 50% reduction in TNF production.

With `CNc1cc(N(C)C(=O)Nc2cc(C(=O)Nc3ccc(C(C)(C)C)cc3)ccc2C)ncn1` [Example 25], the pIC50 in experiment [1] is > 5.30; in experiment [2], ≥ 5.30.

Turning to `CNc1ncnc(N(C)C(=O)Nc2cc(C(=O)Nc3ccc4ccccc4c3)ccc2C)n1` [Example 30, 4-methyl-3-(((methyl(4-(methylamino)-1,3,5-triazin-2-yl)amino)carbonyl)amino)-N-(2-naphthalenyl) benzamide], the pIC50 is > 5.30 in experiment [1] and ≥ 5.30 in experiment [2].

Take `CNc1cc(N(C)C(=O)Nc2cc(C(=O)Nc3cccc(-c4ccccc4)c3)ccc2C)ncn1` [Example 31, N-(1,1′-biphenyl-3-yl)-4-methyl-3-(((methyl(6-(methylamino)-4-pyrimidinyl)amino)carbonyl)amino)benzamide]: the pIC50 is > 5.30 in experiment [1] and ≥ 5.30 in experiment [2].

As to `CNc1cc(N(C)C(=O)Nc2cc(C(=O)Nc3ccc(C(F)(F)F)cc3)ccc2C)ncn1` [Example 32, 4-methyl-3-(((methyl(6-(methylamino)-4-pyrimidinyl)amino)carbonyl)amino)-N-(4-(trifluoromethyl)phenyl)benzamide], the figures for the pIC50 in experiment [1] and in experiment [2] were > 5.30 and ≥ 5.30, respectively.
